According to US11285218B2, “Degradation of bromodomain-containing protein 9 (BRD9) by conjugation of BRD9 inhibitors with E3 ligase ligand and methods of use” (Dana-Farber Cancer Institute, Inc., priority 2016, dated 2022):
Entries after “also recorded” stand apart in the source; their conditions may differ.

Key:
[1] = molecular target: BRD4(1) (Homo sapiens, UniProt O60885); assay: BromoScan single-point screen; assay type: binding; set-up: utilizing DNA-tagged bromodomain and immobilized ligand attached to solid support; details: percent of protein captured on solid support vs control
From the text: (§1) The BromoScan is an assay that measures the engagement of compounds with bromodomain proteins by utilizing DNA-tagged bromodomain and immobilized ligand attached to solid support. In the control test, DNA-tagged bromodomain binds to the ligand and the bromodomain is captured on the solid support. Compounds that compete for the bromodomain binding location on the ligand will prevent the bromodomain from binding, resulting in less protein captured on the solid support.

[2] = molecular target: T1, TAF1L(2) (Homo sapiens, UniProt Q8IZX4); assay: BromoScan single-point screen; assay type: binding; details: percent of protein captured on solid support vs control
T1 construct: utilizing DNA-tagged bromodomain and immobilized ligand attached to solid support
From the text: as §1

[3] = molecular target: T2, CREBBP (Homo sapiens, UniProt Q92793); assay: BromoScan single-point screen; assay type: binding; details: percent of protein captured on solid support vs control
T2 construct: utilizing DNA-tagged bromodomain and immobilized ligand attached to solid support
From the text: as §1

[4] = molecular target: T3, SMARCA2 (Homo sapiens, UniProt P51531); assay: BromoScan single-point screen; assay type: binding; details: percent of protein captured on solid support vs control
T3 construct: utilizing DNA-tagged bromodomain and immobilized ligand attached to solid support
From the text: as §1

[5] = molecular target: T4, SMARCA4 (Homo sapiens, UniProt P51532); assay: BromoScan single-point screen; assay type: binding; details: percent of protein captured on solid support vs control
T4 construct: utilizing DNA-tagged bromodomain and immobilized ligand attached to solid support
From the text: as §1

[6] = molecular target: T5, WDR9(2) (Homo sapiens, UniProt Q9NSI6); assay: BromoScan single-point screen; assay type: binding; details: percent of protein captured on solid support vs control
T5 construct: utilizing DNA-tagged bromodomain and immobilized ligand attached to solid support
From the text: as §1

[7] = molecular target: T6, BRPF1 (Homo sapiens, UniProt P55201); assay: BromoScan single-point screen; assay type: binding; details: percent of protein captured on solid support vs control
T6 construct: utilizing DNA-tagged bromodomain and immobilized ligand attached to solid support
From the text: as §1

[8] = molecular target: T7, BRD2(1) (Homo sapiens, UniProt P25440); assay: BromoScan single-point screen; assay type: binding; details: percent of protein captured on solid support vs control
T7 construct: utilizing DNA-tagged bromodomain and immobilized ligand attached to solid support
From the text: as §1

[9] = molecular target: T8, PCAF (Homo sapiens, UniProt Q92831); assay: BromoScan single-point screen; assay type: binding; details: percent of protein captured on solid support vs control
T8 construct: utilizing DNA-tagged bromodomain and immobilized ligand attached to solid support
From the text: as §1

[10] = molecular target: T9, BRD2(2) (Homo sapiens, UniProt P25440); assay: BromoScan single-point screen; assay type: binding; details: percent of protein captured on solid support vs control
T9 construct: utilizing DNA-tagged bromodomain and immobilized ligand attached to solid support
From the text: as §1

[11] = molecular target: T10, BRD3(2) (Homo sapiens, UniProt Q15059); assay: BromoScan single-point screen; assay type: binding; details: percent of protein captured on solid support vs control
T10 construct: utilizing DNA-tagged bromodomain and immobilized ligand attached to solid support
From the text: as §1

[12] = molecular target: T11, BRD3(1) (Homo sapiens, UniProt Q15059); assay: BromoScan single-point screen; assay type: binding; details: percent of protein captured on solid support vs control
T11 construct: utilizing DNA-tagged bromodomain and immobilized ligand attached to solid support
From the text: as §1

[13] = molecular target: T12, BRD9 (Homo sapiens, UniProt Q9H8M2); assay: BromoScan single-point screen; assay type: binding; details: percent of protein captured on solid support vs control
T12 construct: utilizing DNA-tagged bromodomain and immobilized ligand attached to solid support
From the text: as §1

[14] = molecular target: T13, TAF1(2) (Homo sapiens, UniProt P21675); assay: BromoScan single-point screen; assay type: binding; details: percent of protein captured on solid support vs control
T13 construct: utilizing DNA-tagged bromodomain and immobilized ligand attached to solid support
From the text: as §1

[15] = molecular target: T14, CECR2 (Homo sapiens, UniProt Q9BXF3); assay: BromoScan single-point screen; assay type: binding; details: percent of protein captured on solid support vs control
T14 construct: utilizing DNA-tagged bromodomain and immobilized ligand attached to solid support
From the text: as §1

[16] = molecular target: T15, GCN5L2 (Homo sapiens, UniProt Q92830); assay: BromoScan single-point screen; assay type: binding; details: percent of protein captured on solid support vs control
T15 construct: utilizing DNA-tagged bromodomain and immobilized ligand attached to solid support
From the text: as §1

[17] = molecular target: T16, ATAD2B (Homo sapiens, UniProt Q9ULI0); assay: BromoScan single-point screen; assay type: binding; details: percent of protein captured on solid support vs control
T16 construct: utilizing DNA-tagged bromodomain and immobilized ligand attached to solid support
From the text: as §1

[18] = molecular target: T17, FALZ (Homo sapiens, UniProt Q12830); assay: BromoScan single-point screen; assay type: binding; details: percent of protein captured on solid support vs control
T17 construct: utilizing DNA-tagged bromodomain and immobilized ligand attached to solid support
From the text: as §1

[19] = molecular target: T18, BRD4(2) (Homo sapiens, UniProt O60885); assay: BromoScan single-point screen; assay type: binding; details: percent of protein captured on solid support vs control
T18 construct: utilizing DNA-tagged bromodomain and immobilized ligand attached to solid support
From the text: as §1

[20] = molecular target: T19, EP300 (Homo sapiens, UniProt Q09472); assay: BromoScan single-point screen; assay type: binding; details: percent of protein captured on solid support vs control
T19 construct: utilizing DNA-tagged bromodomain and immobilized ligand attached to solid support
From the text: as §1

[21] = molecular target: T20, PBRM1(5) (Homo sapiens, UniProt Q86U86); assay: BromoScan single-point screen; assay type: binding; details: percent of protein captured on solid support vs control
T20 construct: utilizing DNA-tagged bromodomain and immobilized ligand attached to solid support
From the text: as §1

[22] = molecular target: T21, BAZ^2B (Homo sapiens, UniProt Q9UIF8); assay: BromoScan single-point screen; assay type: binding; details: percent of protein captured on solid support vs control
T21 construct: utilizing DNA-tagged bromodomain and immobilized ligand attached to solid support
From the text: as §1

[23] = molecular target: T22, BAZ^2A (Homo sapiens, UniProt Q9UIF9); assay: BromoScan single-point screen; assay type: binding; details: percent of protein captured on solid support vs control
T22 construct: utilizing DNA-tagged bromodomain and immobilized ligand attached to solid support
From the text: as §1

[24] = molecular target: T23, BRDT(2) (Homo sapiens, UniProt Q58F21); assay: BromoScan single-point screen; assay type: binding; details: percent of protein captured on solid support vs control
T23 construct: utilizing DNA-tagged bromodomain and immobilized ligand attached to solid support
From the text: as §1

[25] = molecular target: T24, BRD9 (Homo sapiens, UniProt Q9H8M2); assay: BRD9 immunoblot in MM1S CRBN knockout cells; details: MM.1S CRBN knockout cell line, 4 hour treatment, indicated doses
T24 sequence (Q9H8M2 1-597): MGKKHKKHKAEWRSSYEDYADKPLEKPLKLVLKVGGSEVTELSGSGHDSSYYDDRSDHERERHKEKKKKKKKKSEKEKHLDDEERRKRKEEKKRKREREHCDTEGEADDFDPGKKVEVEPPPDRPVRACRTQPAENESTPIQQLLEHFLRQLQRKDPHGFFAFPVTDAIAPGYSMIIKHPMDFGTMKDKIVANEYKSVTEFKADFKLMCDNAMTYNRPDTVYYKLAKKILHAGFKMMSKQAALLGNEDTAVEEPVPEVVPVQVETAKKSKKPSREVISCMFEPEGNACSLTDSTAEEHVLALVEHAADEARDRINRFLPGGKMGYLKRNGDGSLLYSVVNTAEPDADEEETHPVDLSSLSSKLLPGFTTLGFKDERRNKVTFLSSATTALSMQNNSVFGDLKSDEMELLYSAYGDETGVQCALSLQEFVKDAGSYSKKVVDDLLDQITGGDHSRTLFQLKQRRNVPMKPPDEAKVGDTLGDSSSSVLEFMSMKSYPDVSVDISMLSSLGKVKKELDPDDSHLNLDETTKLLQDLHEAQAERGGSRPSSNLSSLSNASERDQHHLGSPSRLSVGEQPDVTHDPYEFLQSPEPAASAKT
Method: (§2) In additional experiments, cells were washed with PBS, before being lysed in RIPA buffer supplemented with 1×HALT™ protease inhibitor cocktail (Thermo Scientific) for 10 min on ice, followed by low-amplitude sonication for 10 seconds at 4° C. […] In soluble material was removed by centrifugation at 20,000×g for 20 min before protein content was quantified by BCA assay (Pierce). […] Blots were imaged using fluorescence-labeled secondary antibodies (LI-COR) on the OdysseyCLxImager (LI-COR).

[26] = molecular target: BRD4:CRBN-DDB1 protein complex (Homo sapiens, UniProt O60885+Q96SW2); assay: CRBN-DDB1/BRD4 dimerization assay (luminescence); details: in words
Method: To detect CRBN-DDBI/BRD4 dimerization, we adapted bead-based AlphaScreen technology. […] Compounds were then pinned at 100 nL per well from DMSO stock. After 1 incubation at room temperature. Nickel Chelate AlphaLISA Acceptor and Glutathione AlphaLISA Donor beads (PerkinElmer) were diluted in assay buffer to 20 μg/mL and added at 20 μl per well.

[27] = system: MV411 cell line; assay: ATPlite viability assay, MV4;11; details: MV4;11, 72 hours; in words
Method: 500 cells/well were plated at a volume of 40 μL/well in white tissue culture treated 384 well assay plates (Thermo Scientific) before DMSO compound stock was added from pre-diluted plates by pin transfer using a Janus Workstation (PerkinElmer, USA). […] Assay plates were allowed to equilibrate to RT for 30 min before reconstituted ATPlite 1 Step reagent (Perkin Elmer) was dispensed at 1:1 volume/well by EL406 automated liquid handler (Biotek, USA).

[28] = molecular target: T24, BRD9; assay: BRD9 immunoblot in MOLM-13
Method: as §2

T2 sequence (Q92793 1085-1192 limits assumed): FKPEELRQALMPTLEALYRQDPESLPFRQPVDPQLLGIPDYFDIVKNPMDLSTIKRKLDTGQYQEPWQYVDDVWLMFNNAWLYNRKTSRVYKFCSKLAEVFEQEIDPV
T20 sequence (Q86U86 653-763 limits assumed): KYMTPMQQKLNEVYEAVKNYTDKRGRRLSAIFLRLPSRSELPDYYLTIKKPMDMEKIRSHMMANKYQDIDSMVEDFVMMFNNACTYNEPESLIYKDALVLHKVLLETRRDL
T8 sequence (Q92831 723-827 limits assumed): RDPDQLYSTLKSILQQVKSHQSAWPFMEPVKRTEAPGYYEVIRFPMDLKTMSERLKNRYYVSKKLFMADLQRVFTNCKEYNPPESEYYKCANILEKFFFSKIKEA
T16 sequence (Q9ULI0 951-1066 limits assumed): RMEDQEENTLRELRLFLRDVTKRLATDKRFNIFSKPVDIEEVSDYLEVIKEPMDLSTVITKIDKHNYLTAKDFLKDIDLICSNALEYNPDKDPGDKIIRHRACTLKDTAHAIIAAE
T4 sequence (P51532 1453-1564 limits assumed): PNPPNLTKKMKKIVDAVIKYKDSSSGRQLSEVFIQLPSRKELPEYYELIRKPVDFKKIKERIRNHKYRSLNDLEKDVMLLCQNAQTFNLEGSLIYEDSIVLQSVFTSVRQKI
T14 sequence (Q9BXF3 434-538 limits assumed): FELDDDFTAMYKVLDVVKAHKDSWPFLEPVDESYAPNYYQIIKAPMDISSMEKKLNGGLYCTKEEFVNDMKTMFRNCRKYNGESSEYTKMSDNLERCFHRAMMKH
T9 sequence (P25440 344-453 limits assumed): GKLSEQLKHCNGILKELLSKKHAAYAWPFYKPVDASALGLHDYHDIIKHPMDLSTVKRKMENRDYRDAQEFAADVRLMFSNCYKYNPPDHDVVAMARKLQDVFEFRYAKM
T22 sequence (Q9UIF9 1793-1897 limits assumed): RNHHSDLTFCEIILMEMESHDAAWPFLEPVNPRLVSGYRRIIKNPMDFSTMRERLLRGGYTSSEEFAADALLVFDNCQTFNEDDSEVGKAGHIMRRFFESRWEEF
T15 sequence (Q92830 728-832 limits assumed): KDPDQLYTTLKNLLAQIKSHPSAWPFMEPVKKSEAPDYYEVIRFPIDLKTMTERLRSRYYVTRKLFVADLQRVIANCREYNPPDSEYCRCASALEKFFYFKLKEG
T19 sequence (Q09472 1049-1156 limits assumed): as the sequence (Q92793 1085-1192 limits assumed) above, with N47S, V73I, F93Y, A98S counted along it
T7 sequence (P25440 74-180 limits assumed): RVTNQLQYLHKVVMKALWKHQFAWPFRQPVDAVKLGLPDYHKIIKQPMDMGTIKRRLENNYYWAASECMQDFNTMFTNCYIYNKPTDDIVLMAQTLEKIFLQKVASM
T11 sequence (Q15059 34-140 limits assumed): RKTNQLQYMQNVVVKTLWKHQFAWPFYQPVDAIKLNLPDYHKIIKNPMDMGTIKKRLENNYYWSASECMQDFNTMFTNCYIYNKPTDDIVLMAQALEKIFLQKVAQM
T1 sequence (Q8IZX4 1517-1626 limits assumed): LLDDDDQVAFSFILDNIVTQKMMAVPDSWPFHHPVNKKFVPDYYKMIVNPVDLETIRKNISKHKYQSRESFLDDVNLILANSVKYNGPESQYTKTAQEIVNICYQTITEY
T10 sequence (Q15059 306-415 limits assumed): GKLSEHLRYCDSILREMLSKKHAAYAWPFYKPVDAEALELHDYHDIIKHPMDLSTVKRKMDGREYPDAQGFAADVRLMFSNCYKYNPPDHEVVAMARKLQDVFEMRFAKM
T6 sequence (P55201 628-732 limits assumed): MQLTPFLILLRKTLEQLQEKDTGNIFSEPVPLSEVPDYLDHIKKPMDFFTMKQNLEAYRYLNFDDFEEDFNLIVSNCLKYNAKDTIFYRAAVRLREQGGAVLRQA
T21 sequence (Q9UIF8 2060-2164 limits assumed): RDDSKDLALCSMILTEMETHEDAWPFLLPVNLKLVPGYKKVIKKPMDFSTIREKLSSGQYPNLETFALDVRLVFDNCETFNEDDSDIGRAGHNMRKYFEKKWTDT
T3 sequence (P51531 1378-1506 limits assumed): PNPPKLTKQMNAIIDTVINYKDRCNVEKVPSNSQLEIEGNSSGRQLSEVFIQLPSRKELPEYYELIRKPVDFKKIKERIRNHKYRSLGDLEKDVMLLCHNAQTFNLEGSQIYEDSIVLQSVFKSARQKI
T13 sequence (P21675 1519-1628 limits assumed): as the sequence (Q8IZX4 1517-1626 limits assumed) above, with M46V, V51M, I102V, I107L counted along it
T5 sequence (Q9NSI6 1313-1418 limits assumed): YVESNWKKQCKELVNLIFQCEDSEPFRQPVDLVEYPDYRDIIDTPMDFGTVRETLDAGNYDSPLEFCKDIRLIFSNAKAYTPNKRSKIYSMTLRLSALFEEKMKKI

% Ctrl @ 1 μM [1]: 1.8 % Ctrl
% Ctrl @ 1 μM [2]: 54 % Ctrl
% Ctrl @ 1 μM [3]: 10 % Ctrl
% Ctrl @ 1 μM [4]: 68 % Ctrl
% Ctrl @ 1 μM [5]: 41 % Ctrl
% Ctrl @ 1 μM [6]: 83 % Ctrl
% Ctrl @ 1 μM [7]: 7.6 % Ctrl
% Ctrl @ 1 μM [8]: 4 % Ctrl
% Ctrl @ 1 μM [9]: 55 % Ctrl
% Ctrl @ 1 μM [10]: 43 % Ctrl
% Ctrl @ 1 μM [11]: 19 % Ctrl
% Ctrl @ 1 μM [12]: 5 % Ctrl
% Ctrl @ 1 μM [13]: 0.25 % Ctrl
% Ctrl @ 1 μM [14]: 19 % Ctrl
% Ctrl @ 1 μM [15]: 0.15 % Ctrl
% Ctrl @ 1 μM [16]: 62 % Ctrl
% Ctrl @ 1 μM [17]: 60 % Ctrl
% Ctrl @ 1 μM [18]: 60 % Ctrl
% Ctrl @ 1 μM [19]: 40 % Ctrl
% Ctrl @ 1 μM [20]: 37 % Ctrl
% Ctrl @ 1 μM [21]: 71 % Ctrl
% Ctrl @ 1 μM [22]: 74 % Ctrl
% Ctrl @ 1 μM [23]: 42 % Ctrl
% Ctrl @ 1 μM [24]: 57 % Ctrl
BRD9 degradation (immunoblot) [25]: little to no BRD9 degradation
time to near complete BRD9 loss ([28]; MOLM-13, 100 nM): ≤ 1 h
return of BRD9 during treatment ([28]; MOLM-13, 100 nM, 24-hour treatment period): no detectable return
Compound: COc1cc(-c2cn(C)c(=O)c3cc(C(=N)NC4CCS(=O)(=O)CC4)sc23)ccc1OCC(=O)NCCCCCCCCNc1cccc2c1CN(C1CCC(=O)NC1=O)C2=O (stereo not shown) [Compound I-17]
formation of the BRD4:CRBN-DDB1 protein complex [26]: effectively induce biochemical association
half-maximal anti-proliferative concentration [27]: low nanomolar
maximal efficacy on cell proliferation [27]: significantly exceeded that of the more selective I-25
BRD9 protein level (immunoblot) ([28]; MOLM-13, 4 hour treatment, indicated concentrations, in words): effectively downregulate BRD9 over a broad range of concentrations; also recorded: effectively downregulating BRD9 protein over a broad range of concentrations
